The source of these data is US9611277B2 (Janssen Pharmaceutica NV, priority 2013, dated 2017).

The target in one experiment is rat orexin 1 receptor (Rattus norvegicus, UniProt P56718). Put plainly: Rat orexin 1 receptor radioligand binding. To be noted: rat orexin 1 receptor; averages of 2-20 runs; read-out: rOX1 Ki. In outline: (§1)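 Ki values derive from one-site competition IC50s corrected with the radioligand's predetermined Kd, triplicates per run, averaged over 2-20 runs. Cell homogenates (rat or human OX1R) compete against [^3H]-thiazolyl-oxadiazolyl-pyrrolidine methanone in PBS; 10 μM almorexant sets nonspecific binding; scintillation counting after washing.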

In another experiment the target is human orexin 1 receptor (Homo sapiens, UniProt O43613). Briefly: Human orexin 1 receptor radioligand binding. Particulars: human orexin 1 receptor; averages of 2-20 runs; read-out: hOX1 Ki. The gist of the method: as §1
A further experiment has as its target human orexin 2 receptor (Homo sapiens (Human), UniProt O43614). Briefly: Human orexin 2 receptor radioligand binding. To be noted: read-out: hOX2 Ki. The gist of the method:
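Ki derived from one-site competition IC50 using predetermined Kd of [3H]-EMPA, triplicate points, 2-20 runs averaged. Binding done on homogenized HEK293 cells stably expressing human orexin 2 receptor, DMSO ≤0.1%, with 10 μM almorexant defining nonspecific binding; filtered, washed, scintillation counted.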

[1] abbreviates: human orexin 2 receptor, averages of 2-20 runs.

pKi: −log10 of the molar value. Read-outs that look alike come from different tables or passages of the source.

human orexin 2 receptor, sequence (O43614 whole entry): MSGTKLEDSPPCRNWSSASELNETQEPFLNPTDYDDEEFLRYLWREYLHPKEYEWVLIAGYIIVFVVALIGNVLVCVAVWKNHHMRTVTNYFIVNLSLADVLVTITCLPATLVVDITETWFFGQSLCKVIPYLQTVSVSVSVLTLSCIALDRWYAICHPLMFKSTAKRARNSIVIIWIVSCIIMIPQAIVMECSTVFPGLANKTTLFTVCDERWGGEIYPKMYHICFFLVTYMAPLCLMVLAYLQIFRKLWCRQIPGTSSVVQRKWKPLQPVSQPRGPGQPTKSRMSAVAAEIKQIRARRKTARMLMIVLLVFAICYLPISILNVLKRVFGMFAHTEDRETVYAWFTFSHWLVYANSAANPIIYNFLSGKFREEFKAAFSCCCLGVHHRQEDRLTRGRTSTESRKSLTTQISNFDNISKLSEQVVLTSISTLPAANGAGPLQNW

Usually pKi stands for −log10 of the Ki, conventionally taken in molar units. Consider `CCc1cnc(O[C@@H]2C[C@H]3C[C@@H]2N(C(=O)c2cccc(F)c2-c2ncccn2)C3)nc1` [Example 137, ((1S,4R,6R)-6-((5-ethylpyrimidin-2-yl)oxy)-2-azabicyclo[2.2.1]heptan-2-yl)(3-fluoro-2-(pyrimidin-2-yl)phenyl)methanone], for which the pKi on rat orexin 1 receptor was 7.41; on human orexin 1 receptor, 7.19; at human orexin 2 receptor (setting [1]), 5.77.
For `O=C(c1cccc(F)c1-c1ncccn1)N1C[C@@H]2CC[C@H]1[C@H](Oc1ncc(C(F)(F)F)cc1F)C2` [Example 266, (3-fluoro-2-(pyrimidin-2-yl)phenyl)((1S,4R,6R)-6-((3-fluoro-5-(trifluoromethyl)pyridin-2-yl)oxy)-2-azabicyclo[2.2.2]octan-2-yl)methanone] the same measures were 7.96, 7.96 and 6.18.
The corresponding values for `Cc1ccc(-n2nccn2)c(C(=O)N2C[C@H]3C[C@@H](Nc4ccc(C(F)(F)F)nn4)[C@@H]2C3)n1` [Example 243, (6-methyl-3-(2H-1,2,3-triazol-2-yl)pyridin-2-yl)((1S,4S,6R)-6-((6-(trifluoromethyl)pyridazin-3-yl)amino)-2-azabicyclo[2.2.1]heptan-2-yl)methanone] are 6.95, 6.88 and 5.74.
The corresponding values for `Cc1cccc(C(=O)N2C[C@H]3C[C@@H](Nc4cnc(C(F)(F)F)cn4)[C@@H]2C3)c1-n1nccn1` [Example 196, (3-methyl-2-(2H-1,2,3-triazol-2-yl)phenyl)((1S,4S,6R)-6-((5-(trifluoromethyl)pyrazin-2-yl)amino)-2-azabicyclo[2.2.1]heptan-2-yl)methanone] are 8.22, 8.40 and 7.22.
Regarding `Cc1ccc(-c2ncccn2)c(C(=O)N2C[C@H]3C[C@@H](Oc4ccc(C(F)(F)F)cn4)[C@@H]2C3)n1` [Example 92, (6-methyl-3-(pyrimidin-2-yl)pyridin-2-yl)((1S,4R,6R)-6-((5-(trifluoromethyl)pyridin-2-yl)oxy)-2-azabicyclo[2.2.1]heptan-2-yl)methanone], the pKi on rat orexin 1 receptor is 7.89; at human orexin 1 receptor, 7.72; on human orexin 2 receptor (setting [1]) it was 6.44.
For the compound “((1S,4S,6R)-6-((5-chloropyrimidin-2-yl)amino)-2-azabicyclo[2.2.1]heptan-2-yl)(5-fluoro-2-(pyrimidin-2-yl)phenyl)methanone [Example 238]”, the pKi was 7.70 at rat orexin 1 receptor, 8.10 at human orexin 1 receptor and 6.00 at human orexin 2 receptor.
Consider `CN(c1ccc(C(F)(F)F)cn1)[C@@H]1C[C@H]2C[C@@H]1N(C(=O)c1cc(F)ccc1-c1ncccn1)C2` [Example 158, (5-fluoro-2-(pyrimidin-2-yl)phenyl)((1S,4S,6R)-6-(methyl(5-(trifluoromethyl)pyridin-2-yl)amino)-2-azabicyclo[2.2.1]heptan-2-yl)methanone], for which the pKi at rat orexin 1 receptor is 8.30; at human orexin 1 receptor, 8.70; at human orexin 2 receptor (setting [1]), 6.47.
For `Cc1cccc(C(=O)N2C[C@H]3C[C@@H](Oc4ccc(C(F)(F)F)cn4)[C@@H]2C3)c1-c1ncc(F)cn1` [Example 91, (2-(5-fluoropyrimidin-2-yl)-3-methylphenyl)((1S,4R,6R)-6-((5-(trifluoromethyl)pyridin-2-yl)oxy)-2-azabicyclo[2.2.1]heptan-2-yl)methanone] the same measures were 8.10, 8.22 and 6.48.
Turning to `O=C(c1cccc(F)c1-c1ncc(F)cn1)N1C[C@@H]2CC[C@H]1[C@H](Oc1cnc(C(F)(F)F)cn1)C2` [Example 273, (3-fluoro-2-(5-fluoropyrimidin-2-yl)phenyl)((1S,4R,6R)-6-((5-(trifluoromethyl)pyrazin-2-yl)oxy)-2-azabicyclo[2.2.2]octan-2-yl)methanone], the pKi on rat orexin 1 receptor was 7.36; on human orexin 1 receptor, 7.80; at human orexin 2 receptor (setting [1]) it was 5.42.
The corresponding values for `O=C(c1cc(F)ccc1-c1ncccn1)N1C[C@H]2C[C@@H](Oc3ccc(Br)cn3)[C@@H]1C2` [Example 111, ((1S,4R,6R)-6-((5-bromopyridin-2-yl)oxy)-2-azabicyclo[2.2.1]heptan-2-yl)(5-fluoro-2-(pyrimidin-2-yl)phenyl)methanone] are 8.30, 8.30 and 6.34.
For the compound `O=C(c1ccccc1-n1nccn1)N1C[C@H]2C[C@@H](Nc3ncc(C(F)(F)F)cc3F)[C@@H]1C2` [Example 177, (2-(2H-1,2,3-triazol-2-yl)phenyl)((1S,4S,6R)-6-((3-fluoro-5-(trifluoromethyl)pyridin-2-yl)amino)-2-azabicyclo[2.2.1]heptan-2-yl)methanone], the pKi at rat orexin 1 receptor was 8.52; on human orexin 1 receptor, 8.52; on human orexin 2 receptor (setting [1]) it was 6.70.
For `O=C(c1cccc(F)c1-c1ncccn1)N1C[C@@H]2CC[C@H]1[C@H](Oc1ccc(Cl)cn1)C2` [Example 271, ((1S,4R,6R)-6-((5-chloropyridin-2-yl)oxy)-2-azabicyclo[2.2.2]octan-2-yl)(3-fluoro-2-(pyrimidin-2-yl)phenyl)methanone], the pKi was 8.15 at rat orexin 1 receptor, 8.10 at human orexin 1 receptor and 6.34 on human orexin 2 receptor (setting [1]).
The corresponding values for `O=C(c1cccc(F)c1-c1ncccn1)N1C[C@H]2C[C@@H](Nc3cnc(Cl)cn3)[C@@H]1C2` [Example 214, ((1S,4S,6R)-6-((5-chloropyrazin-2-yl)amino)-2-azabicyclo[2.2.1]heptan-2-yl)(3-fluoro-2-(pyrimidin-2-yl)phenyl)methanone] are 7.89, 7.85 and 6.15.
The corresponding values for `O=C(c1cc(F)ccc1-n1nccn1)N1C[C@H]2C[C@@H](Oc3ccc(Cl)cn3)[C@@H]1C2` [Example 113, ((1S,4R,6R)-6-((5-chloropyridin-2-yl)oxy)-2-azabicyclo[2.2.1]heptan-2-yl)(5-fluoro-2-(2H-1,2,3-triazol-2-yl)phenyl)methanone] are 7.77, 7.85 and 6.01.
As for `Cc1cnc(N[C@@H]2C[C@H]3C[C@@H]2N(C(=O)c2cccc(F)c2-n2nccn2)C3)cn1` [Example 217, (3-fluoro-2-(2H-1,2,3-triazol-2-yl)phenyl)((1S,4S,6R)-6-((5-methylpyrazin-2-yl)amino)-2-azabicyclo[2.2.1]heptan-2-yl)methanone], the pKi was 7.92 at rat orexin 1 receptor, 7.54 at human orexin 1 receptor and 6.41 on human orexin 2 receptor (setting [1]).
On to `CN(c1cnc(C(F)(F)F)cn1)[C@@H]1C[C@H]2C[C@@H]1N(C(=O)c1cc(F)ccc1-c1ncccn1)C2` [Example 209, (5-fluoro-2-(pyrimidin-2-yl)phenyl)((1S,4S,6R)-6-(methyl(5-(trifluoromethyl)pyrazin-2-yl)amino)-2-azabicyclo[2.2.1]heptan-2-yl)methanone], for which the pKi at rat orexin 1 receptor was 8.05; at human orexin 1 receptor, 8.30; on human orexin 2 receptor (setting [1]) it was 6.12.
`O=C(c1cccc(F)c1-c1ncccn1)N1C[C@H]2C[C@@H](Oc3ccc(Br)cn3)[C@@H]1C2` [Example 48, ((1S,4R,6R)-6-((5-bromopyridin-2-yl)oxy)-2-azabicyclo[2.2.1]heptan-2-yl)(3-fluoro-2-(pyrimidin-2-yl)phenyl)methanone]: the results for the pKi at rat orexin 1 receptor, on human orexin 1 receptor and on human orexin 2 receptor (setting [1]) were 8.40, 8.30 and 6.04, respectively.
For `O=C(c1ccccc1-n1nccn1)N1C[C@H]2C[C@@H](Oc3ccc4cccnc4n3)[C@@H]1C2` [Example 287, ((1S,4R,6R)-6-((1,8-naphthyridin-2-yl)oxy)-2-azabicyclo[2.2.1]heptan-2-yl)(2-(2H-1,2,3-triazol-2-yl)phenyl)methanone] the same measures were 6.81, 6.65 and 5.57.
For `O=C(c1cccc(F)c1-c1ncccn1)N1C[C@H]2C[C@@H](Nc3ccc(C(F)(F)F)cn3)[C@@H]1C2` [Example 66, (3-fluoro-2-(pyrimidin-2-yl)phenyl)((1S,4S,6R)-6-((5-(trifluoromethyl)pyridin-2-yl)amino)-2-azabicyclo[2.2.1]heptan-2-yl)methanone] the same measures were 8.70, 8.30 and 6.74.
For `O=C(c1c(F)cccc1-c1ncccn1)N1C[C@H]2C[C@@H](Nc3ccc(C(F)(F)F)cn3)[C@@H]1C2` [Example 147, (2-fluoro-6-(pyrimidin-2-yl)phenyl)((1S,4S,6R)-6-((5-(trifluoromethyl)pyridin-2-yl)amino)-2-azabicyclo[2.2.1]heptan-2-yl)methanone] the same measures were 8.30, 8.22 and 6.72.
With `O=C(c1cccc(F)c1-c1ncccn1)N1C[C@@H]2CC[C@H]1[C@H](Oc1ccc(Br)cn1)C2` [Example 269, ((1S,4R,6R)-6-((5-bromopyridin-2-yl)oxy)-2-azabicyclo[2.2.2]octan-2-yl)(3-fluoro-2-(pyrimidin-2-yl)phenyl)methanone], the pKi is 8.40 at rat orexin 1 receptor, 8.30 on human orexin 1 receptor and 6.44 on human orexin 2 receptor (setting [1]).
The corresponding values for `Cc1cnc(-n2nccn2)c(C(=O)N2C[C@H]3C[C@@H](Oc4ccc(C(F)(F)F)cn4)[C@@H]2C3)c1` [Example 88, (5-methyl-2-(2H-1,2,3-triazol-2-yl)pyridin-3-yl)((1S,4R,6R)-6-((5-(trifluoromethyl)pyridin-2-yl)oxy)-2-azabicyclo[2.2.1]heptan-2-yl)methanone] are 7.35, 7.44 and less than 5.00.
